In patent US20240000885A1 (VANDERBILT UNIVERSITY, published 2024):
Like-named read-outs stand apart in the source and are kept apart here.

How the values were obtained:
[1] = molecular target: interaction of MHV M-GFP with Cherry-MYO5B+D tail (902T) in A549 cells (UniProt P03415+Q9ULV0); type: cell-based, human
[2] = molecular target: interaction of MHV M tail with MYO5B(ABCDE) (UniProt P03415+Q9ULV0); type: cell-based, Mouse Hepatitis Virus (MHV)
pAD-MYO5B(ABCDE) = molecular target: T1, pAD-MYO5B(ABCDE) (human, UniProt Q9ULV0 1235-1439); assay: binary yeast 2-hybrid
T1 construct: also called MYO5B ABCDE exons; construct containing just the ABCDE exons
T1 sequence: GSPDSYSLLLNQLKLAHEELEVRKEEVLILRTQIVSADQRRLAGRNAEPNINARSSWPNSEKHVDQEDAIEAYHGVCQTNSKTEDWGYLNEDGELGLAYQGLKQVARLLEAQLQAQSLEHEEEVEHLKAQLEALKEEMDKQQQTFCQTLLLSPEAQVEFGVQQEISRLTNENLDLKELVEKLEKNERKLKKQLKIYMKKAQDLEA

interaction of MHV M-GFP with Cherry-MYO5B+D tail (902T) in A549 cells, sequence (Q9ULV0 902-1848, one chain of several): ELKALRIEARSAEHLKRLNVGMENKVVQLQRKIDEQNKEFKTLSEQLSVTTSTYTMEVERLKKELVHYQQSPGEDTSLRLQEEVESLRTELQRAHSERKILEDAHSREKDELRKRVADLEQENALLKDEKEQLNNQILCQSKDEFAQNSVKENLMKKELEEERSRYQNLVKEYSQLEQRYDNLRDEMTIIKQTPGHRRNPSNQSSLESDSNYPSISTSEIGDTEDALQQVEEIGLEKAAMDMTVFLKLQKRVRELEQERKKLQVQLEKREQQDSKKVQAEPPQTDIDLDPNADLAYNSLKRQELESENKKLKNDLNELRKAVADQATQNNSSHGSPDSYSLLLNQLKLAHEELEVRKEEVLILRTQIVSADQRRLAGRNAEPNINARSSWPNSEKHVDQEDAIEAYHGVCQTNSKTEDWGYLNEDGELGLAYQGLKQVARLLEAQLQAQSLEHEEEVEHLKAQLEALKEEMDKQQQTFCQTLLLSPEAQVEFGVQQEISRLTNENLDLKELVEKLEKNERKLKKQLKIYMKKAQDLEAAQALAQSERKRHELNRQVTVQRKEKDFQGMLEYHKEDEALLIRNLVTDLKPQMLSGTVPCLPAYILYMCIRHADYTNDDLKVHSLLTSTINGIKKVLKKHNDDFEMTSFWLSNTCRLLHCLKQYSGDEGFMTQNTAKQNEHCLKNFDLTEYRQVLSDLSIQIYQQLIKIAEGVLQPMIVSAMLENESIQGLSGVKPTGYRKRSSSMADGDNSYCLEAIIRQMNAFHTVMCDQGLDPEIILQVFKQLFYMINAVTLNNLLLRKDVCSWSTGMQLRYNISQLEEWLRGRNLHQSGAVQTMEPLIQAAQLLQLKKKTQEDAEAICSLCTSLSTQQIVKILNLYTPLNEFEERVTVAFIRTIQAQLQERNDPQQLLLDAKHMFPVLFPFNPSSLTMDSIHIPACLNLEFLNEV

## CN/C(=N/CCSCc1nc[nH]c1C)NC#N [Cimetidine]
[1]
  effect on the co-localization of MHV M with MYO5B+D: no effect

## O=C(O)Cc1ccccc1Nc1c(Cl)cccc1Cl [Diclofenac]
[1]
  inhibition of the interaction between MHV M and MYO5B+D: more equivocal effects
[2]; 10 μM, 24 hours
  identified as hit in initial yeast 2-hybrid screen (loss of b-galactosidase activity): hits

## NC(N)=Nc1nc(CSCCC(N)=NS(N)(=O)=O)cs1 [Famotidine]
[1]
  effect on the co-localization of MHV M with MYO5B+D: no effect

## CS(=O)(=O)Nc1ccc([N+](=O)[O-])cc1Oc1ccccc1 [Nimesulide]
[1]
  inhibition of the interaction between MHV M and MYO5B+D: more equivocal effects
[2]
  identified as hit in initial yeast 2-hybrid screen (loss of b-galactosidase activity): hits

## CNC(=C[N+](=O)[O-])NCCSCc1csc(CN(C)C)n1 [Nizatidine]
[1]
  effect on colocalization of MHV M-GFP with ch-MYO5B+D 902 Tail: disrupts the colocalization
  inhibition of the interaction between MHV M and MYO5B+D: showed inhibition
  lowest concentration causing loss of localization between MHV M and MYO5B+D: 10 pM
  lowest concentration that disrupted co-localization of MHV M-GFP and Cherry-MYO5B+D tail: 100 µM
  lowest dose that disrupted co-localization of MHV M with MYO5B+D: 100 pM
[2]
  identified as hit in initial yeast 2-hybrid screen (loss of b-galactosidase activity): hits

## CN1Cc2c(N)cccc2C(c2ccccc2)C1 (centres unmarked) [Nomifensine]
[1]
  inhibition of the interaction between MHV M and MYO5B+D: did not alter the interaction
[2]; 10 μM, 24 hours
  identified as hit in initial yeast 2-hybrid screen (loss of b-galactosidase activity): hits

## Amiodorone
[1]
  inhibition of the interaction between MHV M and MYO5B+D: showed inhibition
[2]; 10 μM, 24 hours
  identified as hit in initial yeast 2-hybrid screen (loss of b-galactosidase activity): hits

B1: MHV M tail with deletion of the terminal 2 amino acids (other)
chain: SIRLFIRTGSWWSFNPETNNLMCIDMKGTVYVRPIIEDYHTLTATIIRGHLYMQGVKLGTGFSLSDLPAYVTVAKVSHLCTYKRAFLDKVDGVSGFAVYVKSKVGNYRLPSNKPSGADTALL
pAD-MYO5B(ABCDE)
  binding result: binds
